Experiment [1] has as its target T1, RNA-directed RNA polymerase (Hepacivirus hominis, UniProt O39930). Nature of the experiment: Inhibitory activity against HCV 1a NS5B RNA dependent RNA polymerase.
For the next experiment, the target named is DNA polymerase beta (Homo sapiens, UniProt P06746). Nature of the experiment: Inhibitory activity against DNA polymerase beta.
The next experiment relates to Huh-5-2. Kind of experiment: Cytotoxicity against Huh5-2 cells by MTT assay. It counts as functional. To be noted: Homo sapiens.
Experiment [2] concerns the target T2, DNA polymerase alpha catalytic subunit (Homo sapiens, UniProt P09884).
T2 sequence (P09884 whole entry): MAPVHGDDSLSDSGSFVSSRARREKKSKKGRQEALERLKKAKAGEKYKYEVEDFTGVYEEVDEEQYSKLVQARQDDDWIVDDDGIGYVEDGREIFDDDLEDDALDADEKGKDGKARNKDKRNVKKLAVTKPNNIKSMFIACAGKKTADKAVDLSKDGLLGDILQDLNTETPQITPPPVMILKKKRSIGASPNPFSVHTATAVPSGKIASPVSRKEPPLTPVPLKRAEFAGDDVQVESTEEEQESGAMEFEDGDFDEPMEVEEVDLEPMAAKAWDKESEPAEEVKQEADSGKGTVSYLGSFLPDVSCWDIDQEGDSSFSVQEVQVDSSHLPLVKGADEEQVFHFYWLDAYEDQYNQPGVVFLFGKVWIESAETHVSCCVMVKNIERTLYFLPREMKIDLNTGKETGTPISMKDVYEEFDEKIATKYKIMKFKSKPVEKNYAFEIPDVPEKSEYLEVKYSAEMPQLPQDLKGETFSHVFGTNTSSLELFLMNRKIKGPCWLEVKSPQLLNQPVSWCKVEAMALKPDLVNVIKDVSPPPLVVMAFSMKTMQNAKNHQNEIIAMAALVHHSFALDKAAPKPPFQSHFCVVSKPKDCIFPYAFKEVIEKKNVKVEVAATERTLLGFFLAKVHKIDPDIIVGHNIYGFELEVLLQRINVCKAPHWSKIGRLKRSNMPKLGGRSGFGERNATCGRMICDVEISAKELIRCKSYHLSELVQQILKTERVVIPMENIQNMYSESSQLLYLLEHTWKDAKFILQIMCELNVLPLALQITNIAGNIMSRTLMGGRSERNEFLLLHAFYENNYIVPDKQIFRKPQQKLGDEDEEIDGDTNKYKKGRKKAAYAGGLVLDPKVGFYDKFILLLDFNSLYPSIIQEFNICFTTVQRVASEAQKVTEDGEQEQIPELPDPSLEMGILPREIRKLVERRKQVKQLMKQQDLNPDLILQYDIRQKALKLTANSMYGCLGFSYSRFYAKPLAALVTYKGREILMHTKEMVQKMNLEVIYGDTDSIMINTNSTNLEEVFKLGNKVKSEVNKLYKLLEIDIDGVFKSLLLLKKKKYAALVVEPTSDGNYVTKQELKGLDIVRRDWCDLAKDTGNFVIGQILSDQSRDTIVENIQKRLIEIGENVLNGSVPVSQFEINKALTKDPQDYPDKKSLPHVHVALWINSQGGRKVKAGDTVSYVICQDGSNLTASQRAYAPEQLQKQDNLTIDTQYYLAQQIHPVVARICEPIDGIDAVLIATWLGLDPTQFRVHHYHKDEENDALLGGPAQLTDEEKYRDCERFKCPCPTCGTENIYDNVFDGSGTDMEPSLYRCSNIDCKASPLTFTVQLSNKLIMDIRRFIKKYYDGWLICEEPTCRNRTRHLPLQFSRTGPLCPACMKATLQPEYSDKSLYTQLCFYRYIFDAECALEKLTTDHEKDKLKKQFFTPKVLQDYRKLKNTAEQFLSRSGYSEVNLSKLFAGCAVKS
Nature of the experiment: Inhibitory activity against DNA polymerase alpha.

In experiment [3] the target is T1, RNA-directed RNA polymerase. Nature of the experiment: Inhibitory activity against HCV 1b NS5B RNA dependent RNA polymerase. Also noted: species or system Hepatitis C virus subtype 1b.
Experiment [4] addresses RNA-directed RNA polymerase (Hepacivirus hominis) (UniProt O39930). Nature of the experiment: Inhibitory activity against HCV 1b NS5B RNA dependent RNA polymerase at 10 uM. To be noted: Hepatitis C virus subtype 1b.

Among the data in ChEMBL document CHEMBL1146135, “Benzimidazole inhibitors of hepatitis C virus NS5B polymerase: identification of 2-[(4-diarylmethoxy)phenyl]-benzimidazole” (Bioorg Med Chem Lett, 2006) are IC50, CC50 and inhibition values, retold here.

T1 sequence (O39930 whole entry): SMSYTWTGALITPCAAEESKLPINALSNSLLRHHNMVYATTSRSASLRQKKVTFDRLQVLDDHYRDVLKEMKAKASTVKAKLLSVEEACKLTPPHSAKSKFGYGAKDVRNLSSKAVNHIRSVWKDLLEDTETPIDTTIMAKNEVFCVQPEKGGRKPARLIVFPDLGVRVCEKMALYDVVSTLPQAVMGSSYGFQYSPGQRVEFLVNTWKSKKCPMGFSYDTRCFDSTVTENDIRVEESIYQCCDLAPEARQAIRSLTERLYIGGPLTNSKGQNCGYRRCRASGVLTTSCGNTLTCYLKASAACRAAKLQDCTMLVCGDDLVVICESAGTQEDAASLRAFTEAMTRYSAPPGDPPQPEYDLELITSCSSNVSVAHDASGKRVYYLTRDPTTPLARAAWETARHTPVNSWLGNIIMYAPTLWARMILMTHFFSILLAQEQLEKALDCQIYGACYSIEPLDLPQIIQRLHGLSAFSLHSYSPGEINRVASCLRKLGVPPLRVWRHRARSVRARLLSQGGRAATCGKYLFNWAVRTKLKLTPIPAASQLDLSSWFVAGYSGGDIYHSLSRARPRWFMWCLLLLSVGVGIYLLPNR
Chain of RNA-directed RNA polymerase (Hepacivirus hominis) (O39930 1-591): as the sequence (O39930 whole entry) above

As to `O=C(O)c1ccc2c(c1)nc(-c1ccc(OC(c3cccc(F)c3)c3cccc(F)c3)cc1)n2C1CCCCC1`, the IC50 in experiment [1] is 1.9 µM; at DNA polymerase beta, over 10 µM; in experiment [2], over 10 µM; in experiment [3], 0.76 µM. The compound also returned a CC50 in the experiment with Huh-5-2 of 24.4 µM.
Consider `O=C(O)c1ccc2c(c1)nc(-c1ccc(OC(c3cccnc3)c3cccnc3)cc1F)n2C1CCCCC1`, for which the IC50 is 2.2 µM in experiment [1], over 10 µM against DNA polymerase beta, over 10 µM in experiment [2] and 1.1 µM in experiment [3]. This compound gave a CC50 in the experiment with Huh-5-2 of over 50 µM.
With `O=C(O)c1ccc2c(c1)nc(-c1ccc(OC(c3ccccc3)c3ccccc3)cc1F)n2C1CCCCC1`, the 50% inhibitory concentration (IC50) in experiment [1] is 0.8 µM; on DNA polymerase beta it was over 10 µM; in experiment [2], over 10 µM; in experiment [3], 0.096 µM. In addition, it took 27.3 µM to reach half-maximal cytotoxicity with Huh-5-2 (CC50).
`Cc1ccc(C(Oc2ccc(-c3nc4cc(C(=O)O)ccc4n3C3CCCCC3)cc2)c2ccc(C)cc2)cc1`: the IC50 in experiment [1] is 3.1 µM; at DNA polymerase beta it was over 10 µM; in experiment [2] it was over 10 µM; in experiment [3] it was 1.2 µM. The same compound returned a CC50 with Huh-5-2 of 23.5 µM.
In the case of `O=C(O)c1ccc2c(c1)nc(-c1ccc(OCc3ccc(Cl)c(Cl)c3)cc1)n2C1CCCC1`, half-maximal inhibition in experiment [3] (IC50) required 1.3 µM.
For `O=C(O)c1ccc2c(c1)nc(-c1ccc(OCc3ccccc3-c3ccccc3)cc1)n2C1CCCCC1`, in experiment [3], the concentration for half-maximal inhibition (IC50) came out at 0.3 µM.
On the same count and under the same terms, for `O=C(O)c1ccc2c(c1)nc(-c1ccc(OCc3ccccc3)cc1)n2C1CCCCCC1` the value was 1.8 µM; for `O=C(O)c1ccc2c(c1)nc(-c1ccc(OCc3ccccc3)cc1)n2C1CCCC1`, 3.2 µM.
Still for that read-out and setting: for `O=C(O)c1ccc2c(c1)nc(-c1ccc(OCc3ccccc3)cc1)n2C1CCCCC1` the value was 1.4 µM.
Same read-out and setting: under `CC(C)(C)c1ccc(COc2ccc(-c3nc4cc(C(=O)O)ccc4n3C3CCCC3)cc2)cc1` stands 1.5 µM; under `O=C(O)c1ccc2c(c1)nc(-c1ccc(OCc3ccc(Cl)cc3)cc1)n2C1CCCC1`, 1.2 µM.
Regarding `O=C(O)c1ccc2c(c1)nc(-c1ccc(OC(c3ccc(Cl)cc3)c3ccc(Cl)cc3)cc1)n2C1CCCCC1`, the IC50 is 2.4 µM in experiment [1], over 10 µM at DNA polymerase beta, over 10 µM in experiment [2] and 0.93 µM in experiment [3]. This compound also displayed a CC50 with Huh-5-2 of 23.7 µM.
Consider `O=C(O)c1ccc2c(c1)nc(-c1ccc(OCCCCCc3ccccc3)cc1)n2C1CCCCC1`, for which the IC50 in experiment [3] was 1 µM. This counts as single-digit micromolar.
Consider `O=C(O)c1ccc2c(c1)nc(-c1ccc(OC(c3ccccc3)c3cccnc3)cc1F)n2C1CCCCC1` (stereo not drawn), for which the IC50 in experiment [1] was 0.8 µM; at DNA polymerase beta, over 10 µM; in experiment [2], over 10 µM; in experiment [3], 0.27 µM. Moreover, the CC50 in the experiment on Huh-5-2 is over 50 µM.
As for `COc1ccc(COc2ccc(-c3nc4cc(C(=O)O)ccc4n3C3CCCC3)cc2)cc1`, in experiment [3], 2.1 µM corresponded to half-maximal inhibition (IC50).
Consider `NC(=O)c1ccc2c(c1)nc(-c1ccc(OCc3ccccc3)cc1)n2C1CCCC1`, for which the inhibition in experiment [4] turned out to be 47%.
With `O=C(O)c1ccc2c(c1)nc(-c1ccc(OC(c3ccc(F)cc3)c3ccc(F)cc3)cc1F)n2C1CCCCC1`, the IC50 in experiment [1] is 0.84 µM; on DNA polymerase beta, over 10 µM; in experiment [2], over 10 µM; in experiment [3] it was 0.3 µM. The same compound came in with a CC50 with Huh-5-2 of 27.2 µM.
For `O=C(O)c1ccc2c(c1)nc(-c1ccc(OC(c3ccc(F)cc3)c3ccc(F)cc3)cc1)n2C1CCCCC1`, the IC50 in experiment [1] was 1.7 µM; at DNA polymerase beta, over 10 µM; in experiment [2], over 10 µM; in experiment [3], 0.8 µM. The compound further showed a half-maximal cytotoxic concentration (CC50) in the experiment on Huh-5-2 of 27.7 µM.
`O=C(O)c1ccc2c(c1)nc(-c1ccc(OCCc3ccccc3-c3ccccc3)cc1)n2C1CCCCC1` registered an IC50 in experiment [3] of 0.34 µM.
On the same count and under the same terms, under `Cc1ccc(COc2ccc(-c3nc4cc(C(=O)O)ccc4n3C3CCCC3)cc2)cc1` stands 1.6 µM; under `O=C(O)c1ccc2c(c1)nc(-c1ccc(Oc3ccccc3-c3ccccc3)cc1)n2C1CCCCC1`, 0.58 µM; under `O=C(O)c1ccc2c(c1)nc(-c1ccc(OCc3cccc(-c4ccccc4)c3)cc1)n2C1CCCCC1`, 0.39 µM.
For `CN(C)C(=O)c1ccc(C(Oc2ccc(-c3nc4cc(C(=O)O)ccc4n3C3CCCCC3)c(F)c2)c2ccc(C(=O)N(C)C)cc2)cc1`, the IC50 in experiment [1] was 0.95 µM; against DNA polymerase beta, over 10 µM; in experiment [2], over 10 µM; in experiment [3] it was 0.64 µM. Besides, the CC50 with Huh-5-2 was over 50 µM.
The compound `O=C(O)c1ccc2c(c1)nc(-c1ccc(OCc3ccccc3Cl)cc1)n2C1CCCC1` yielded an IC50 in experiment [3] of 2.3 µM.
In turn, `O=C(O)c1ccc2c(c1)nc(-c1ccc(OCc3ccc(C(F)(F)F)cc3)cc1)n2C1CCCC1` had an IC50 in experiment [3] of 1.8 µM.
Same read-out and setting: under `O=C(O)c1ccc2c(c1)nc(-c1ccc(OCCCc3ccccc3)cc1)n2C1CCCCC1` stands 0.8 µM.
Same read-out and setting: for `O=C(O)c1ccc2c(c1)nc(-c1ccc(OCc3ccncc3)cc1)n2C1CCCC1` the value was 4.2 µM.
Turning to `O=C(O)c1ccc2c(c1)nc(-c1ccc(OC(c3ccccc3)c3ccccc3)cc1)n2C1CCCCC1`, the IC50 in experiment [1] is 1.3 µM; on DNA polymerase beta, over 10 µM; in experiment [2] it was over 10 µM; in experiment [3] it was 0.59 µM. This compound also came in with a CC50 with Huh-5-2 of 31.9 µM.
Compound `O=C(O)c1ccc2c(c1)nc(-c1ccc(OCCOc3ccccc3)cc1)n2C1CCCCC1` yielded an IC50 in experiment [3] of 1.2 µM.
Still for that read-out and setting: under `O=C(O)c1ccc(COc2ccc(-c3nc4cc(C(=O)O)ccc4n3C3CCCC3)cc2)cc1` stands 6.7 µM; under `O=C(O)c1ccc2c(c1)nc(-c1ccc(OCc3cc(Cl)cc(Cl)c3)cc1)n2C1CCCC1`, 1.7 µM.
The compound `O=C(O)c1ccc2c(c1)nc(-c1ccc(OCc3cccc(Cl)c3)cc1)n2C1CCCC1` returned an IC50 in experiment [3] of 1.6 µM.
Turning to `O=C(O)c1ccc2c(c1)nc(-c1ccc(OCC(c3ccccc3)c3ccccc3)cc1)n2C1CCCCC1`, the IC50 in experiment [3] was 0.98 µM.
